Ends that are not written are not given here.
How the values were obtained:
[1] = test system: IgG antibodies in sera of Mtb-infected mice; type: binding, BALB/c mice
[2] = test system: macrophage cell line RAW 264.7; test: FITC-labeled peptide binding to RAW 264.7 (confocal microscopy, FACS); type: cell-based, murine
Description: B11 peptide (50 μg) was conjugated to FITC (Biotium, Hayward, Calif.) as described by Sethi et al., [Sethi, K. K., et al. Cell Motil Cytoskeleton 52:231-241 (2002)]. For confocal microscopy, RAW 264.7 cells were grown in 8-well glass slides, Chamber Slide™ (Nunc), as described above. Cells were washed three times in cold PBS and incubated with the FITC-labeled mimotope for 5 min at 4° C. in serial dilutions of 1:2-1:100 in cold PBS. Slides were imaged immediately with a Zeiss 410 confocal laser scanning microscope.
(§1) RAW 264.7 cells were grown in a 250-ml flask, washed 3 times in cold PBS, and harvested, THP-1 cells were grown to 10^6/ml in 250-ml flask, centrifuged at 3000 rpm for 10 min, then washed 3 times in cold PBS. Cells were then incubated for 15 min at 37° C., with the FITC-labeled peptide diluted 1:50, then washed 3 times in cold PBS. The fluorescence levels of 10,000 cell counts were determined by FACS (Becton Dickinson, Franklin Lakes, N.J.) and analyzed by CELLQuest™ software. Assay of competitive binding between D-mannose and the FITC-labeled B11 peptide was performed according to Nguyen and Hildreth [Nguyen, D. G., and Hildreth, J. E. Eur J Immunol 33:483-493 (2003)].

[3] = test system: THP-1 human monocyte cell line; test: FITC-labeled peptide binding to THP-1 (FACS); type: cell-based
Description: as §1

[4] = test system: CS40 anti-ManLAM monoclonal antibody; test: ELISA competition vs. ManLAM for CS40 mAb; type: binding; conditions: 50 μg/ml of peptide
Description: ELISA competition assay was performed as described [Kaur, D., et al. Microbiology 148:3049-3057 (2002)]. Briefly, plates were coated with 0.5 μg/well ManLAM. Plates were blocked as described above. The CS40 mAb (diluted 1:2000) was mixed with various concentrations of either phage particles in TBS/1% BSA (0-1×10^18 particles/well) or peptides in PBS/1% BSA (0-200 μg/well). […] After washing (PBS), the ELISA procedure was performed as described above. Samples were all tested in triplicate.

CS40 mAb = test: Direct peptide ELISA with CS40 mAb; type: binding
[5] = test system: serum antibodies of TB patients; test: ELISA of human TB patients' sera on ManLAM or B11 coated plates; type: binding
Excerpt: Marchal (Pasteur Institute, Paris).

[6] = test system: RAW 264.7 macrophage cell line; test: Cytokine secretion in RAW 264.7 cells (cytokine ELISA); type: cell-based, murine
RAW 264.7 cell line = test: Apoptosis of RAW 264.7 cells; type: cell-based, murine
primary spleen cells = test: Proliferation of primary spleen cells; type: cell-based, BALB/c mice
LPS-induced symptoms [7] = test: LPS mice model; type: in vivo, BALB/c mice
Description: Female BALB/c mice, 6-7 weeks old were injected i.p. with 150 μg LPS (Sigma) per mouse.
Treatment with peptide was performed four days before LPS injection, (i.p. 200 μg peptide per mouse).

allergic peritonitis = test: OVA induced allergic peritonitis model; type: in vivo, BALB/c mice
Description: For induction of allergic peritonitis, female BALB/c mice, 5-6 weeks old, were sensitized twice on days 1 and 7 by subcutaneous (s.c.) injection of 0.4 ml of a 0.9% solution of NaCl containing 100 μg ovalbumin (OVA) adsorbed on 1.6 mg Al(OH)3 (all Sigma) the mice received a second dose of the same s.c. injection. On day 11 Peritonitis was induced by the intraperitoneal (i.p.) injection of 0.4 ml of a solution containing 5 μg/ml OVA diluted in saline [Temkin V. et al., Cytokine. 24:74-80. (2003)]. Negative control group were sensitized with saline. On day 12 mice were sacrificed (24 h after challenge (peritonitis induction)), and the peritoneal cavity was washed with 5 ml of Tyrode buffer (3 mmol/L potassium chloride, 10 mmol/L sodium hydrogen carbonate, 20 mmol/L sodium chloride, 0.36 mmol/L sodium phosphate, 0.1% glucose (all Sigma)) containing 0.1% gelatin (TG buffer). Peritoneal lavage fluid was centrifuged (5 minutes, 150 g), supernatants were saved for cytokine ELISA, and cell pellets were re-suspended in 2 ml of TG buffer for eosinophil quantification. Cells were stained for 30 min. with Phycoerytrin (PE)-labeled anti-CCR3Ab (0.625 μg/ml; R&D systems, Abingdon, UK) and eosinophils were defined as cells expressing the eotaxin receptor CCR3 [Grimaldi et al., J Leukoc Biol. 65:846-53. (1999)] by FACS analysis.
Mice treated with B11 peptide were treated i.p. with 200 μg/mouse 1 hour before sensitizations (Group-S), 1 hour before challenge (Group-C), and 1 hour before both sensitizations and challenge (Group-S+C).
(§2) Cytokine levels in mouse sera, cell supernatants, peritoneum lavage, and BALF were assessed by ELISA tests using commercial pairs of antibodies and recombinant cytokines for TNFα IFN-γ, IL-10 and IL-4 (Pharmingen International, Oxford, UK), and IL-12 (Biosource International, Camarillo, Calif.) according to the manufacturer's instructions. The ranges of the sensitivities of the ELISA for the murine cytokines were 15-200 pg/ml for TNF-α, IFN-γ, IL-10, and IL-4, and 15-500 pg/ml for IL-12.

allergic asthma = test: OVA induced allergic asthma model; type: in vivo, mice
Description: For the induction of allergic asthma, mice were sensitized with OVA (Grade V, Sigma) adsorbed to Al(OH)3 gel (Aldrich Chemical Company, Milwaukee, Wis.), using 8 mg OVA/2 ml gel/0.5 ml H2O, pH 7.0-7.5, given intraperitoneally on days 0 and 14. On days 24 and 27 mice were challenged (induction of allergic asthma) with OVA i.n. Negative control group were sensitized with saline. The sensitization and challenge protocol used is an adaptation of a reported procedure [Blyth D. et al., Am. J. Respir. Cell Mol. Biol., 14: 425-438. (1996)].
Twenty-four hours after the second challenge mice were sacrificed. Bronchoalveolar lavage (BAL) was performed with PBS. Eosinophils in Bronchoalveolar lavage fluid (BALF) were detected as described above. Cytokine ELISA was performed to determine cytokine levels in BALF.
Mice treated with B11 peptide were treated with 200 μg/mouse 2 days before sensitizations (Group-S i.p.), 2 days before challenges i.p. (Group-C i.p.), or 1 hour before challenge i.n. (Group-C i.n.) and 2 days both before sensitization and challenge (Group-S+C i.p.).
Lung were excised and examined histologically and photographed after staining with haematoxylin and eosin.
as §2

TNBS induced colitis = test: TNBS induced colitis; type: in vivo, C57BL/6 mice
Description: In Specific pathogen-free male 4 month old C57BL/6 mice lightly anesthetized a 3.5F catheter was carefully inserted into the colon (4 cm proximal to the anus) administering 0.5 mg of the hapten reagent TNBS (Sigma) in 50% ethanol into the lumen of the colon at days 1 and 5. Animals were then kept in a vertical position for […] and returned to their cages. The mice were monitored for weight loss, behavior, appearance and diarrhea for 11 days. On day 11 mice were sacrificed and tested from macroscopic inflammation symptoms in the spleen, liver and colon [Neurath M. et al., J Exp Med. 182:1281-90. (1995)].
Mice treated with B11 peptide were treated i.p. with 200 μg/mouse on days 1 and 5.

LPS-induced symptoms [8] = test: LPS mice model; type: in vivo, BALB/c mice; conditions: B11 post-treatment, LPS 150 μg i.p.
[9] = Groups S, C and S+C vs Group OVA, 200 μg i.p.

CISLTEWSMWYRH [B11 peptide with an additional cysteine residue at the amino terminus]
binding properties to ManLAM-binding antibodies ([1]; peptide with extra cysteine at amino terminus): maintained binding properties

FITC-conjugated B11 peptide: B11 peptide conjugated to FITC (ISLTEWSMWYRH; also: FITC conjugated)
binding to macrophages in presence of D-mannose ([2]; FACS, 0.125 M D-mannose): inhibited by D-mannose | binding to RAW 264.7 ([2]; confocal microscopy and FACS): bound the macrophage cell line RAW 264.7 | binding to THP-1 in presence of D-mannose ([3]; 0.125 M D-mannose): inhibited by D-mannose

ISLTEWSMWYRH (random phage display library) [B11 peptide]
decrease in OD in competitive ELISA [4]: 100% | binding to CS40 mAb by direct ELISA (CS40 mAb): bound the CS40 mAb | IgG Abs in sera binding the coated antigen [1]: significantly higher than those of the naive mice | anti-peptide antibody titers in BCG-vaccinated individuals ([5]; BCG-vaccinated vs TB patients): significantly lower than in TB patients | titers of antigen-binding antibodies in sera of TB patients ([5]; TB patients vs healthy individuals): Significantly higher titers | binding to THP-1 [3]: Binds | inhibition of IL-12 secretion ([6]; LPS-IFN-γ-activated RAW 264.7): 20% | production of IL-12 ([6]; non-activated RAW 264.7): not induced | production of IL-6 ([6]; non-activated RAW 264.7, data not shown): not induced | inhibition of apoptosis (RAW 264.7 cell line; LPS-IFN-γ-activated RAW 264.7): 30% | induction of apoptosis (RAW 264.7 cell line; non-activated RAW 264.7): did not induce apoptosis | inhibition of proliferation (primary spleen cells; spleen cells of Mtb infected mice): 40-50% | inhibition of proliferation (primary spleen cells; spleen cells of adjuvant stimulated mice): 40-50% | inhibition of proliferation (primary spleen cells; spleen cells of naive mice): 40-50% | State after LPS-B11 pre-treatment (LPS-induced symptoms [7]; 1 hr post LPS injection): healthy | State after LPS-B11 pre-treatment (LPS-induced symptoms [7]; 20 hr post LPS injection): Healthy | State after LPS-B11 pre-treatment (LPS-induced symptoms [7]; 48 hr post LPS injection): Healthy | LPS symptoms (appearance, behavior, curing rate) (LPS-induced symptoms [7]; pre-treated i.p. 200 μg 4 days before LPS): milder LPS symptoms | eosonophil levels in peritoneum lavage (allergic peritonitis; 200 μg one hour before challenge with OVA): as in the control group | IFN-γ levels in peritoneum lavage (allergic peritonitis; [9]): significantly lower | IL-10 levels in peritoneum lavage (allergic peritonitis; [9]): significantly lower | IL-12 levels in peritoneum lavage (allergic peritonitis; [9]): significantly lower | eosonophil levels in BALF (allergic asthma; S i.p., C i.p., S+C i.p. and C i.n. vs OVA mice, 200 μg, FACS): significantly lower | IL-12 in BALF (allergic asthma; all mice treated i.p.): significantly lower | IL-10 in BALF (allergic asthma; i.n. before challenge, i.p. both before sensitization and challenge): significantly lower | TNF-α in BALF (allergic asthma; i.p. and i.n. before challenge): significantly lower | IL-4 in BALF (allergic asthma; i.p. and i.n. before challenge, i.p. both before sensitization and challenge): significantly lower | inflammation in lung histology (allergic asthma; treated i.p. before sensitizations or before challenges): no inflammation was observed | appearance, behavior, diarrhea, weight loss (TNBS induced colitis; all 11 days of experiment, all treated mice): normal appearance and behavior, and no diarrhea or weight loss | colons normal in color and thickness (TNBS induced colitis; day 11): 50% | colons with lesions (TNBS induced colitis; day 11): None | macroscopic inflammation symptoms of colon, spleen and liver (TNBS induced colitis; day 11): reduced | treated mice with spleen and liver normal in size and colorization (TNBS induced colitis; day 11): 75% | colitis symptoms (TNBS induced colitis; i.p. 200 μg at days 1 and 5): reduced the colitis symptoms | LPS-induced effects (LPS-induced symptoms [8]): successfully reduced the LPS-induced effects
